In ChEMBL document CHEMBL1201862, “PubChem BioAssay data set” (2004):
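Five compound concentrations were applied to cells in 96-well plates for 48 hours; endpoints were derived by simple linear interpolation of the resulting dose-response curve. The concentration for 50% growth inhibition is given as GI50.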 Active and inactive are the calls of the source. Cut-off read from the data, not from the text of the source: active = GI50 up to about 1.1 µM and inactive = higher.

What was measured:
Assay in all cases: NCI anticancer screen, dose series, 48 h
UACC-257 = test system: UACC-257
HCC 2998 = test system: HCC 2998
HT-29 = test system: HT-29
SK-MEL-28 = test system: SK-MEL-28
ACHN = test system: ACHN
MDA-MB-231 = test system: MDA-MB-231
SF-295 = test system: SF-295
MDA-N = test system: MDA-N
SF-268 = test system: SF-268
SK-OV-3 = test system: SK-OV-3
HOP-62 = test system: HOP-62
K562 = test system: K562
NCI-H23 = test system: NCI-H23
786-0 = test system: 786-0
COLO 205 = test system: COLO 205
UACC-62 = test system: UACC-62
SR = test system: SR
RPMI-8226 = test system: RPMI-8226
OVCAR-3 = test system: OVCAR-3
HOP-92 = test system: HOP-92

SMILES | GI50 (UACC-257) | GI50 (HCC 2998) | GI50 (HT-29) | GI50 (SK-MEL-28) | GI50 (ACHN) | GI50 (MDA-MB-231) | GI50 (SF-295) | GI50 (MDA-N) | GI50 (SF-268) | GI50 (SK-OV-3) | GI50 (HOP-62) | GI50 (K562) | GI50 (NCI-H23) | GI50 (786-0) | GI50 (COLO 205) | GI50 (UACC-62) | GI50 (SR) | GI50 (RPMI-8226) | GI50 (OVCAR-3) | GI50 (HOP-92)
Nc1ccc2nc3n(c2c1)C(c1c(F)cccc1F)SC3 (configuration not stated) | 89.1 µM (inactive) | > 100 µM (inactive) | > 100 µM (inactive) | > 100 µM (inactive) | > 100 µM (inactive) | > 100 µM (inactive) | 98.9 µM (inactive) | > 100 µM (inactive) | > 100 µM (inactive) | > 100 µM (inactive) | > 100 µM (inactive) | 85.5 µM (inactive) | > 100 µM (inactive) | > 100 µM (inactive) | > 100 µM (inactive) | > 100 µM (inactive) | > 100 µM (inactive) | 66.5 µM (inactive) | > 100 µM (inactive) | 
O=C1c2ccccc2C(=O)c2c(NCCCN3CCOCC3)ccc(NCCCN3CCOCC3)c21 | 2.96 µM (inactive) | 2.86 µM (inactive) | 1.14 µM (inactive) | 5.79 µM (inactive) | 2.07 µM (inactive) | 3.08 µM (inactive) | 1.94 µM (inactive) | 3.22 µM (inactive) | 2.75 µM (inactive) |  | 2.12 µM (inactive) | 2.16 µM (inactive) | < 0.01 µM (active) | 2.29 µM (inactive) |  | 2.03 µM (inactive) | 5.57 µM (inactive) | 2 µM (inactive) | 4.07 µM (inactive) | 1.89 µM (inactive)
COC(=O)[C@@H](NC1(c2ccccc2)c2ccccc2-c2ccccc21)[C@H](OC(=O)[C@H]1CCCN1S(=O)(=O)c1ccccc1)C(=O)OC | > 100 µM (inactive) | > 100 µM (inactive) | > 100 µM (inactive) | > 100 µM (inactive) | > 100 µM (inactive) | > 100 µM (inactive) | > 100 µM (inactive) | 72.9 µM (inactive) | > 100 µM (inactive) | 70.6 µM (inactive) | > 100 µM (inactive) | > 100 µM (inactive) | > 100 µM (inactive) | > 100 µM (inactive) | > 100 µM (inactive) | > 100 µM (inactive) | > 100 µM (inactive) |  | > 100 µM (inactive) | < 0.01 µM (active)
C[n+]1c(/C=C/c2ccc(O)c3ncccc23)[se]c2ccccc21 | 2.29 µM (inactive) |  | 4.11 µM (inactive) | 11.4 µM (inactive) | 1.92 µM (inactive) | 0.406 µM (active) | 8.57 µM (inactive) | 5.98 µM (inactive) | 4.91 µM (inactive) | 5.96 µM (inactive) | 3.3 µM (inactive) | 5.11 µM (inactive) | 4.05 µM (inactive) | 2.99 µM (inactive) | 5.58 µM (inactive) | 3.14 µM (inactive) | 1.64 µM (inactive) | 5.01 µM (inactive) | 1.57 µM (inactive) | 4.22 µM (inactive)
Nc1nc(-c2ccccc2)cc(-c2ccc(F)cc2)c1-c1ccc(Cl)cc1 | > 100 µM (inactive) | > 100 µM (inactive) | 13.2 µM (inactive) | > 100 µM (inactive) | > 100 µM (inactive) | > 100 µM (inactive) | 41.6 µM (inactive) | > 100 µM (inactive) | > 100 µM (inactive) | > 100 µM (inactive) | 32.6 µM (inactive) | 12.5 µM (inactive) | > 100 µM (inactive) | 88.3 µM (inactive) | > 100 µM (inactive) | > 100 µM (inactive) | 22.2 µM (inactive) | 44.3 µM (inactive) | > 100 µM (inactive) | 
COc1ccc([C@]23CCN(S(=O)(=O)c4ccc(C)cc4)[C@H]2[C@H](CO)C2(CC3)OCC(C)(C)CO2)cc1OC | > 100 µM (inactive) | > 100 µM (inactive) | > 100 µM (inactive) | > 100 µM (inactive) | > 100 µM (inactive) | > 100 µM (inactive) | > 100 µM (inactive) | > 100 µM (inactive) |  | > 100 µM (inactive) | > 100 µM (inactive) | > 100 µM (inactive) | > 100 µM (inactive) | > 100 µM (inactive) | > 100 µM (inactive) | > 100 µM (inactive) | > 100 µM (inactive) | > 100 µM (inactive) | > 100 µM (inactive) | > 100 µM (inactive)
CCCCCCCCCCCCCCN [TETRADECYLAMINE] | > 100 µM (inactive) | > 100 µM (inactive) | > 100 µM (inactive) | > 100 µM (inactive) | > 100 µM (inactive) | > 100 µM (inactive) | > 100 µM (inactive) | > 100 µM (inactive) | > 100 µM (inactive) | > 100 µM (inactive) | > 100 µM (inactive) | > 100 µM (inactive) | > 100 µM (inactive) | > 100 µM (inactive) | > 100 µM (inactive) | > 100 µM (inactive) |  | > 100 µM (inactive) | > 100 µM (inactive) | > 100 µM (inactive)
